In US8017747B2, “Apoptosis-inducing genes for treating cancer” (Nationwide Children's Hospital, Inc., priority 2004, dated 2011):
Structures can show the parent of a compound that is named as a salt. Where two headings read alike, the source gives them in different places.

Key:
697Bcl2 cells = test: 697Bcl2 cell growth, trypan blue exclusion; format: cell-based; details: 72 hours
Description: (§1) To determine cell viability, cells were subjected to trypan blue exclusion assays. Briefly, cells were washed with PBS, and diluted 1:1 in a solution of 0.4% trypan blue. Viable cells were counted and total viable cell number was used for growth curves. Late apoptotic/necrotic cells were also identified by staining with 0.4% trypan blue. The number of apoptotic/necrotic cells were counted and expressed as a percentage of the total number of cells.
(§2) The foregoing descriptions provide many working examples organized under a single example as an aid to the reader. Further, these descriptions emphasized the results obtained with Jurkat cells.

[1] = test system: SKOV-3 intraperitoneal ovarian tumors; details: 26 days; for Tumor Size / Tumor Weight: mean
Jurkat cells [2] = test: Phase contrast microscopy of Jurkat cells (morphological changes); format: cell-based; details: 12 hours
Method: SAGA transfected, VCR treated, and control cells were visualized microscopically at 0, 12, 48 and 72 hours post transfection/treatment. At 0 hours, the cells in all groups appeared healthy. At 12 hours, there was approximately 5% apoptosis seen in both SAGA- and VCR-treated cell populations. At 48 and 72 hours, more than 50% of apoptotic cells in SAGA- and VCR-treated cell populations were visualized, with a very high degree of morphologically abnormal cells in the population of cells transfected with SAGA, including late necrotic and lysed cells, appearing as cellular debris.

Jurkat cells [3] = test: Jurkat cell growth/viability and late apoptosis, trypan blue exclusion; format: cell-based
Method: Acute T-cell leukemia cells, Jurkat, were grown in RPMI-1640 (Mediatech) supplemented with 10% FBS and grown at 37° C. in 95% air, 5% CO2. For growth analysis, cells were seeded at a density of 2×10^5 cells and for all other experiments a density of 5×10^5 was used. Transfections were performed using effectene transfection reagent, at a ratio of 1 μg DNA:25 μl effectene.
as §1
Proliferating Jurkat cells were seeded at a density of 2×10^5 cells and transfected with control plasmid, SAGA, or treated with 2 μM VCR. Viable cells were assayed by trypan blue exclusion at 0, 12, 24, 48 and 72 hours post-transfection/treatment. […]
Late apoptosis was quantified as the percentage of dead cells versus total cells. […]
In addition to the single treatment effects of SAGA expression on transfected cells, the combined effects of treatment with SAGA plus VCR were also evaluated in vitro using Jurkat cells. […]

Jurkat cells [4] = test: Western blot of Jurkat lysates (Granzyme B, caspase-3, p21); format: cell-based; details: 48 hours
Method: Proteins were extracted from cells by boiling in 0.5% SDS. Quantification of the protein content of the cell lysates was determined using the Lowry method. A total of 15 μg of each cell lysate were analyzed through electrophoretic separation in 12% SDS-PAGE and transferred onto a nitrocellulose membrane using a semi-dry transfer apparatus, at 20V for 1 hour. The membrane was probed with rabbit anti-caspase-3 polyclonal antibody (1:1000, Santa Cruz Biotech), rabbit anti-granzyme B (1:1000, Abcam) or mouse anti-p21 (1:1000, Santa Cruz Biotech) and HRP-conjugated anti-rabbit or anti-mouse IgG (1:5000, Santa Cruz Biotech). Detection was achieved using the ECL or ECL Advanced kits (Amersham) and exposure to X-ray film for varying amounts of time. Protein standards were used for size determination.
Proliferating Jurkat cells were transfected with the survivin promoter-granzyme B construct disclosed herein and termed SAGA, for 24 or 48 hours. Protein extracts were generated from transfected cells and control transfected cells, and analyzed by SDS-PAGE.
After confirming expression of Granzyme B from SAGA, its apoptotic function was tested by assaying for caspase-3 activation. Proliferating Jurkat cells were transfected with SAGA for 24 or 48 hours, as previously described. Protein extracts were separated by SDS-PAGE.
The levels of p21 in control cells at both time points were negligible.

Daoy cells [5] = test: Phase contrast microscopy of Daoy cells; format: cell-based; details: 48 and 72 hours
Method: Living cells in 12-well plates were observed by phase contrast microscopy using a Leica Inverted microscope at 10× magnification.
SAGA-transfected, VCR-treated, and control cells were visualized microscopically at 0, 24, 48 and 72 hours post transfection/treatment. At 0 hours, the cells in all groups appeared healthy.

Jurkat cells (T-ALL) = test: Annexin V/PI staining with FACS, T-ALL (Jurkat); format: cell-based
Method: (§3) To analyze early apoptotic events, cells from the different experimental conditions were subjected to staining with an Annexin V-FLUOS kit (Roche). FACS analysis was then performed.
Annexin-V/PI is a commonly used method to detect early apoptotic events in cells. We employed this strategy to assay early apoptosis in SAGA transfected cells at 12, 24 and 48 hours.
Apoptotic events were detected by Annexin V staining and by changes in mitochondrial potential, as early as 12 hours post-treatment. In addition to these events, DNA fragmentation was also observed and caspase-3 activation was evident in treated cells. Cytotoxicity was clearly visible by microscopic analysis 24 hours post-treatment (FIG. 3).

697Bcl2 cells (B-ALL) = test: Annexin V/PI staining with FACS, B-ALL (697Bcl2); format: cell-based
Method: as §3, §2

Jurkat cells [6] = test: DNA fragmentation by agarose gel, Jurkat; format: cell-based; details: 48 hours
Method: To analyze DNA fragmentation, cellular DNA was isolated by lysis of cells in Cell Lysis Buffer (50 mM Tris-HCl, pH 8.5, 20 mM EDTA, 1% NP-40 (IGEPAL CA-630)) for 30 minutes on ice, followed by a 1 hour incubation at 56° C. with 500 μg/ml RNase A (Roche) and an overnight incubation with 1 mg/ml proteinase K (Fisher) at 37° C. After allowing the solution to cool to room temperature, proteins were precipitated with Protein precipitation solution (Gentra Systems) and isopropanol was added to the supernatants containing DNA to precipitate that DNA. The resulting RNase-treated DNA was quantified by spectrophotometry and 5 μg of DNA were resolved in a 1.8% agarose gel at 80V for 2 hours. DNA was stained by ethidium bromide and visualized with a UV transilluminator. A 1 kB Plus DNA ladder (Fisher) was run alongside the samples.
DNA fragmentation is a common sign of late-stage apoptosis that is characterized by enzyme-mediated nicks and breaks in the DNA. […] The onset of DNA fragmentation occurred at 12 hours post-treatment for SAGA-treated cells. […] DNA from control cells remained intact throughout the experiment.

Daoy cells [7] = test: Daoy cell growth/viability, trypan blue exclusion; format: cell-based; details: 24 hours, VCR 2 μM
Method: Medulloblastoma cell lines, i.e., Daoy cells (ATCC HTB-186), were grown in DMEM-(Mediatech) supplemented with 10% FBS and grown at 37° C. in 95% air, 5% CO2. For growth analysis, cells were seeded at a density of 1.5×10^5 cells. Transfections were performed using effectene transfection reagent, at a ratio of 1 μg DNA:10 μl effectene.
as §1
Proliferating Daoy cells were seeded at a density of 1.5×10^5 cells and transfected with control plasmid, SAGA, or treated with 2 μM VCR. Viable cells were assayed by trypan blue exclusion at 0, 24, 48 and 72 hours post-transfection/treatment. There was a 90% decrease in the viability of SAGA-transfected cells at 24 hours compared to 50% for VCR-treated cells. Control cells grew consistently, with a doubling time of approximately 48 hours.

COc1cc([C@@H]2c3cc4c(cc3[C@@H](O[C@@H]3O[C@@H]5CO[C@@H](C)O[C@H]5[C@H](O)[C@H]3O)[C@H]3COC(=O)[C@H]23)OCO4)cc(OC)c1O [Etoposide, etoposide]
living cells as % of the original inoculum (697Bcl2 cells; vincristine normal serum concentration, etoposide 5 μM): 61.8%

CC(=O)O[C@H]1C(=O)[C@@]2(C)[C@H]([C@H](OC(=O)c3ccccc3)[C@]3(O)C[C@H](OC(=O)[C@H](O)[C@@H](NC(=O)c4ccccc4)c4ccccc4)C(C)=C1C3(C)C)[C@]1(OC(C)=O)CO[C@@H]1C[C@@H]2O [Paclitaxel, paclitaxel]
Disease Dissemination [1]: 4 of 5 | Number of Nodules [1]: 6.2 ± 3.9 | Animals with Tumors at Completion of Therapy ([1]; paclitaxel 15 mg/kg i.p. 2 injections, SAGA 0.5 mg/kg DNA i.p. twice weekly): 5 of 5 | Tumor Size [1]: 10.4 ± 1.3 mm | Tumor Weight [1]: 236.0 ± 79.8 mg | Tumor Size ([1]; listed as paclitaxel): 10.4 mm | Tumor Weight ([1]; listed as paclitaxel): 236.0 mg

CC[C@]1(O)C[C@H]2CN(CCc3c([nH]c4ccccc34)[C@@](C(=O)OC)(c3cc4c(cc3OC)N(C=O)[C@H]3[C@@](O)(C(=O)OC)[C@H](OC(C)=O)[C@]5(CC)C=CCN6CC[C@]43[C@@H]65)C2)C1 [Vincristine, Vincristine sulfate]
apoptosis seen microscopically (Jurkat cells [2]): approximately 5% | average viability (Jurkat cells [3]; 48 hours after treatment): 86% | final living cell count as % of the initial cell number at time 0 (Jurkat cells [3]; 72 hours post-transfection/treatment, VCR 2 μM): 63% | p21 protein induction (Jurkat cells [4]): much lower levels | apoptotic cells seen microscopically (Daoy cells [5]): high numbers of apoptotic cells | living cells as % of the original inoculum (697Bcl2 cells; high dose of vincristine (5 μM)): 103% | Early Apoptosis (Jurkat cells (T-ALL); 24 hours): 46.5% | Necrosis (Jurkat cells (T-ALL); 24 hours): 18% | Early Apoptosis (Jurkat cells (T-ALL); 48 hours): 49.4% | Necrosis (Jurkat cells (T-ALL); 48 hours): 26% | Early Apoptosis (697Bcl2 cells (B-ALL); 24 hours): 1.78% | Necrosis (697Bcl2 cells (B-ALL); 24 hours): 1.17% | Early Apoptosis (697Bcl2 cells (B-ALL); 48 hours): 5.09% | Necrosis (697Bcl2 cells (B-ALL); 48 hours): 2.34% | DNA fragmentation (Jurkat cells [6]): visible | decrease in viability (Daoy cells [7]): 50%
